Results taken from the supplement of paper PMC11061612.

Experiments:
Experiment in all cases: combination Emax (second highest fraction inhibited in the dose matrix, 72 h); higher = more inhibition; extreme values may be limits of the assay
[1] = test system: NCI-H524 (Small Cell Lung Carcinoma)
Method in brief: (§1)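 After 24 hours at 37°C and 5% CO2 in 1536-well plates, cells in DMEM/F12 or RPMI plus 10% FBS received two-drug dose matrices for 72 hours. Viability came from CellTiter-Glo 2.0 luminescence and was scaled as inhibition, anchored at 0 by vehicle wells and at 1 by blank wells. Combination Emax is taken as the second-highest inhibition in the matrix, and Bliss excess as the observed combination effect less EA + EB − EA·EB, with EA and EB the single-agent effects.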

[2] = test system: OVCAR-5 (Ovarian Carcinoma)
Method in brief: as §1

NCI-H2722 (Mesothelioma) = test system: NCI-H2722 (Mesothelioma)
Method in brief: as §1

A673 (Ewing's Sarcoma) = test system: A673 (Ewing's Sarcoma)
Method in brief: as §1

[3] = test system: OE21 (Esophageal Squamous Cell Carcinoma)
Method in brief: as §1

LOXIMVI (Melanoma) = test system: LOXIMVI (Melanoma)
Method in brief: as §1

[4] = test system: OV-56 (Ovarian Carcinoma)
Method in brief: as §1

GAMG (Glioblastoma) = test system: GAMG (Glioblastoma)
Method in brief: as §1

[5] = test system: NCI-H1568 (Lung Adenocarcinoma)
Method in brief: as §1

[6] = test system: LS-123 (Colorectal Carcinoma)
Method in brief: as §1

SMILES | combination Emax [1] | combination Emax [2] | combination Emax (NCI-H2722 (Mesothelioma)) | combination Emax (A673 (Ewing's Sarcoma)) | combination Emax [3] | combination Emax (LOXIMVI (Melanoma)) | combination Emax [4] | combination Emax (GAMG (Glioblastoma)) | combination Emax [5] | combination Emax [6]
CN(CCO)CC[C@H](CSc1ccccc1)Nc1ccc(S(=O)(=O)NC(=O)c2ccc(N3CCC([C@@H](O)c4ccccc4-c4ccc(Cl)cc4)CC3)cc2)cc1S(=O)(=O)C(F)(F)F [AZD4320] + C[C@@H](Nc1cc(F)cc(F)c1)c1cc(C(=O)N(C)C)cc2c(=O)cc(N3CCOCC3)oc12 [AZD8186] (first compound max 1 µM, 7x7, partner max 3 µM) | 0.892 | 0.351 | 0.555 | 0.971 | 0.216 | 0.507 | 0.277 | 0.615 | 0.344 | 
CN(CCO)CC[C@H](CSc1ccccc1)Nc1ccc(S(=O)(=O)NC(=O)c2ccc(N3CCC([C@@H](O)c4ccccc4-c4ccc(Cl)cc4)CC3)cc2)cc1S(=O)(=O)C(F)(F)F [AZD4320] + C=CCn1c(=O)c2cnc(Nc3ccc(N4CCN(C)CC4)cc3)nc2n1-c1cccc(C(C)(C)O)n1 [AZD1775] (first compound max 1 µM, partner max 1 µM) | 0.952 | 0.357 | 0.55 | 1 | 0.641 | 0.691 | 0.165 | 0.643 | 0.57 | 
CN(CCO)CC[C@H](CSc1ccccc1)Nc1ccc(S(=O)(=O)NC(=O)c2ccc(N3CCC([C@@H](O)c4ccccc4-c4ccc(Cl)cc4)CC3)cc2)cc1S(=O)(=O)C(F)(F)F [AZD4320] + CN(C)CCCOc1ccc(-c2ccc3ncc4c(c3c2)n(C2CCOCC2)c(=O)n4C)cn1 [AZD0156] (first compound max 1 µM, 7x7, partner max 1 µM) | 0.814 | 0.164 | 0.285 | 0.929 | 0.158 | 0.366 | 0.153 | 0.197 | 0.313 | 
O=C(c1cc(Cc2n[nH]c(=O)c3ccccc23)ccc1F)N1CCN(C(=O)C2CC2)CC1 [Olaparib] + CN(CC[C@H](CSC1=CC=CC=C1)NC2=C(C=C(C=C2)S(=O)(=O)NC(=O)C3=CC=C(C=C3)N4CCC(CC4)[C@H](C5=CC=CC=C5C6=CC=C(C=C6)Cl)O)S(=O)(=O)C(F)(F)F)CCO [AZD4320] (first compound max 10 µM, 7x7, partner max 1 µM) | 0.755 | 0.182 |  | 0.948 |  | 0.447 |  | 0.223 |  | 0.512
CC1(C)CCC(CN2CCN(c3ccc(C(=O)NS(=O)(=O)c4ccc(NCC5CCOCC5)c([N+](=O)[O-])c4)c(Oc4cnc5[nH]ccc5c4)c3)CC2)=C(c2ccc(Cl)cc2)C1 [Venetoclax] + CS(=O)(=O)CCNCc1ccc(-c2ccc3ncnc(Nc4ccc(OCc5cccc(F)c5)c(Cl)c4)c3c2)o1 [Lapatinib] (first compound max 1 µM, 7x7, partner max 10 µM) | 0.108 | 0.308 |  | 0.207 |  | 0.426 |  | 0.284 |  | 0.267
C[C@@H](Nc1cc(F)cc(F)c1)c1cc(C(=O)N(C)C)cc2c(=O)cc(N3CCOCC3)oc12 [AZD8186] + C1CN(CCC1(C(=O)N[C@@H](CCO)C2=CC=C(C=C2)Cl)N)C3=NC=NC4=C3C=CN4 [AZD5363] (first compound max 10 µM, 7x7, partner max 10 µM) | 0.224 | 0.432 |  | 0.253 |  | 0.287 |  | 0.657 |  | 0.408
C[C@@H](Oc1cc(-c2cnn(C3CCNCC3)c2)cnc1N)c1c(Cl)ccc(F)c1Cl [Crizotinib] + CC1=C(C(=CC=C1)Cl)NC(=O)C2=CN=C(S2)NC3=CC(=NC(=N3)C)N4CCN(CC4)CCO [Dasatinib] (first compound max 10 µM, 7x7, partner max 2 µM) | 0.977 | 0.826 |  | 0.681 |  | 0.972 |  | 0.929 |  | 0.967
CS(=O)(=O)CCNCc1ccc(-c2ccc3ncnc(Nc4ccc(OCc5cccc(F)c5)c(Cl)c4)c3c2)o1 [Lapatinib] + Cn1cnc2c(F)c(Nc3ccc(Br)cc3Cl)c(C(=O)NOCCO)cc21 [Selumetinib] (first compound max 10 µM, 7x7, partner max 10 µM) | 0.305 | 0.655 |  | 0.343 |  | 0.717 |  | 0.644 |  | 0.677
